The IC50 is the midpoint of a concentration-inhibition curve.

Experimental findings from patent publication EP0369391A2, “N-substituted amides” (BOEHRINGER INGELHEIM PHARMACEUTICALS INC., priority 1988, dated 1990) are described below.

Assay [1] concerns the target T1, Human sputum elastase ( HSE ) (Homo sapiens, UniProt P08246).
T1 construct: Human sputum elastase ( HSE ) (Elasten Products Co., Pacific, Mo.); purchased Elasten Products Co., Pacific, Mo; host or cells: human sputum (by the name of the product)
T1 sequence (P08246 30-267): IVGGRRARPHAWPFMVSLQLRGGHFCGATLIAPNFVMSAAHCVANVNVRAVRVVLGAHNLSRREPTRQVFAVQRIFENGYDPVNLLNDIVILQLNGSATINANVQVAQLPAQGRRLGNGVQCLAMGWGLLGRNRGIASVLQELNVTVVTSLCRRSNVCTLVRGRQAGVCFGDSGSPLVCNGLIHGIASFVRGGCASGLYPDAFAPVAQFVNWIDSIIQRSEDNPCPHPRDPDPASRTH
Nature of the assay: Elastase Inhibition - In Vitro Method (hydrolysis of MeO-Suc-Ala-Ala-Pro-Val-pNA, microtiter format). As to conditions: for inhibition at 5 µg/mL: 5ug/mL compound; for IC50: 0.5 mM substrate, 15 minutes pre-incubation. Format: biochemical. From the text: The in vitro assay is based upon the hydrolysis of the commercially available (Sigma Chemical Company, St. Louis, Missouri) substrate methoxy O-succinyl-L-alanyl-L-alanyl-L-prolyl-L-valine para-nitroanilide (MeO-Suc-Ala-Sla-Pro-Val-pNA) and the resulting release of p-nitroanilide (pNA), which absorbs at 405 nm.
• a. Microtiter plates (96 well, flat bottom) • b. Vmax Kinetic Microtiter Plate Reader, equipped with 405 nm filter (Molecular Devices) • c. Microtiter Plate Mixer (Fisher Scientific) • d.
• a. Human sputum elastase ( HSE ) (Elasten Products Co., Pacific, Mo.) dissolved in 1 mg/mL in 0.05 M sodium chloride and frozen (50 µL aliquots) at -20°C until used. • b. Stock solution of MeO-Suc-Ala-Ala-Pro-Val-pNA dissolved at 15 mM in dimethylsulfoxide (DMSO) and frozen (4 mL aliquots) at -20°C until used. • c. Assay buffer: 0.1 M Tris buffer, pH 7.5 containing 0.5 sodium chloride
Screening is performed in microtiter plates, using 0.5 mM substrate and monitored on a Microtiter Reader. Enzyme activity (+/- test compound) is determined as the rate of pNA release (linear regression analysis of slope). Inhibitory activity of the test compound is calculated relative to the uninhibited enzyme control, as follows: [formula]
A frozen aliquot of HSE is thawed and diluted with assay buffer to a stock concentration of 0.02 mg/mL ( 30 x assay concentration). A frozen aliquot of the substrate stock solution is thawed and diluted to 0.5 mM with the assay buffer (final DMSO concentration is […]). 10 µl of the test compound stock solution (or assay buffer) and 10 µl of the HSE stock solution are pipetted into each microtiter well, in duplicate. The plate is mixed well, and pre-incubated at room temperature for 15 minutes. A 300 µl substrate solution is then added to each well and the OD₄₀₅ is followed for approximately 30 minutes.

The target of assay [2] is T2, human neutrophil elastase (HNE) (Homo sapiens, UniProt P08246).
T2 sequence (P08246 30-247 limits assumed): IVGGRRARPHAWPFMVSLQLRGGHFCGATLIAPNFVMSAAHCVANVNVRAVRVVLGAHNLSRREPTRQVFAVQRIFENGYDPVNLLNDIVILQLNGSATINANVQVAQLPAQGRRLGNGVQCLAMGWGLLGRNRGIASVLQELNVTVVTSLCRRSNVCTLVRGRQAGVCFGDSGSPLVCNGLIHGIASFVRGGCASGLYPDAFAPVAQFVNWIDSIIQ
Nature of the assay: Elastase Inhibition - Animal Model (acute hamster hemorrhage model). As to conditions: 20 ug i.t. compound, 50 µg HNE i.t., hemorrhage in lung lavage after 18 hours.

Another assay concerns the target T3, Human Cathepsin G (Homo sapiens, UniProt P08311).
T3 sequence (P08311 21-244): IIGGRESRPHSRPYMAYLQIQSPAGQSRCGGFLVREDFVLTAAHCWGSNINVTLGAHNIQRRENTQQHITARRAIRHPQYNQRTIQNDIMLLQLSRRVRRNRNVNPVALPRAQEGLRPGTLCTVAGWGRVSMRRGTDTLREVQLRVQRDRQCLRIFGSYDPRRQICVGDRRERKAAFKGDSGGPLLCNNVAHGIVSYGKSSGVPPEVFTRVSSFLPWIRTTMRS
Nature of the assay: Selectivity assay: Human Cathepsin G. The assay is classed as biochemical. As to conditions: IC50 of 5 or greater is considered inactive.

Another assay deals with Human Cathepsin B (Homo sapiens, UniProt P07858). Nature of the assay: Selectivity assay: Human Cathepsin B. The assay is classed as biochemical. The note with it: IC50 of 5 or greater is considered inactive.
The next assay deals with Human Urokinase (Homo sapiens, UniProt P00749). Put plainly: Selectivity assay: Human Urokinase. Format: biochemical. As to conditions: IC50 of 5 or greater is considered inactive.
In assay [3] the target is Tissue Plasminogen Activator (Homo sapiens, UniProt P00750). Nature of the assay: Selectivity assay: Tissue Plasminogen Activator. Format: biochemical. As to conditions: IC50 of 5 or greater is considered inactive.
Sequence of Tissue Plasminogen Activator (P00750 36-562): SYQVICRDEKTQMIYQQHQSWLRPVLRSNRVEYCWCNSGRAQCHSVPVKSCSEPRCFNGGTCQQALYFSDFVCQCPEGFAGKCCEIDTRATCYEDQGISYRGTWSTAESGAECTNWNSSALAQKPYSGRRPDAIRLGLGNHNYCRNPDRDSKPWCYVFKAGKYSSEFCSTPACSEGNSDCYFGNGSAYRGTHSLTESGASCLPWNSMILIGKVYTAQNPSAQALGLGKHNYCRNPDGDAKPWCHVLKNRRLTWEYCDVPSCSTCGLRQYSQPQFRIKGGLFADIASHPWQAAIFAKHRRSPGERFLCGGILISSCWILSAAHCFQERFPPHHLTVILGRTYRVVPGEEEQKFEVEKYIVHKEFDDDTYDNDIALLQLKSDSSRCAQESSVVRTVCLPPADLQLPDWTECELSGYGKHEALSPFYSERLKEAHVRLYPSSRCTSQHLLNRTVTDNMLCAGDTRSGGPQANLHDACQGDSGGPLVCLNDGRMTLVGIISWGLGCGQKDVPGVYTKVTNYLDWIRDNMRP
The target in a further assay is T4, Human C1 Esterase (Homo sapiens, UniProt P09871).
T4 sequence (P09871 16-688): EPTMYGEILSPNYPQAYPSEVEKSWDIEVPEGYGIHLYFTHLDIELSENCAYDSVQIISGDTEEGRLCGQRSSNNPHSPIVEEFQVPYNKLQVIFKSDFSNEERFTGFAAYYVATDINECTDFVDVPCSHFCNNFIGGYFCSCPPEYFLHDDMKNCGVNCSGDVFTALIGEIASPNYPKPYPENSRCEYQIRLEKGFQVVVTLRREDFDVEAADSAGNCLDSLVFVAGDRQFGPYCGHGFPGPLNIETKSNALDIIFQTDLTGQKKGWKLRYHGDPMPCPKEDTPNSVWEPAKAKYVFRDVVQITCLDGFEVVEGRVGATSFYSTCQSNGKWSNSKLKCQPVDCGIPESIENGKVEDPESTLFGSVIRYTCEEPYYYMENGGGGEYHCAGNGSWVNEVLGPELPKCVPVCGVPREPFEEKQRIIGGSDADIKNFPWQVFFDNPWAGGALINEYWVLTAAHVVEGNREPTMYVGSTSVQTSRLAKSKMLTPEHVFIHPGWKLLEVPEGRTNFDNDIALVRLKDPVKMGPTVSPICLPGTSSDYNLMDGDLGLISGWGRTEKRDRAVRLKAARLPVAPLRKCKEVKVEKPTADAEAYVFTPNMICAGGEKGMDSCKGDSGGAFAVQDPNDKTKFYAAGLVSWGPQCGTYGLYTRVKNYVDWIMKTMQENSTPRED
Nature of the assay: Selectivity assay: Human C1 Esterase. As to conditions: IC50 of 5 or greater is considered inactive. The assay is classed as biochemical.

Another assay concerns Total Complement. Put plainly: Selectivity assay: Total Complement. The note with it: IC50 of 5 or greater is considered inactive.
The next assay deals with APTT. Put plainly: Selectivity assay: APTT. The note with it: IC50 of 5 or greater is considered inactive.
In another assay the test system is PT. As to conditions: IC50 of 5 or greater is considered inactive.
For the next assay, the target named is Polio 3C - Proteinase (Poliovirus type 1, UniProt P03300). Put plainly: biochemical.
Sequence of Polio 3C - Proteinase (P03300 1566-1748 limits assumed): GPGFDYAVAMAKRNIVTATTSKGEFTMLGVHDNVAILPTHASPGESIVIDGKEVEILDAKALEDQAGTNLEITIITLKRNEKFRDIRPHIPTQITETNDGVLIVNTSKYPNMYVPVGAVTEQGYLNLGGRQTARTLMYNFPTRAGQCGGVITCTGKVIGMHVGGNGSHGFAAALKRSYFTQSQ
The next assay addresses T5, Human Renin (Homo sapiens, UniProt P00797).
T5 sequence (P00797 67-406): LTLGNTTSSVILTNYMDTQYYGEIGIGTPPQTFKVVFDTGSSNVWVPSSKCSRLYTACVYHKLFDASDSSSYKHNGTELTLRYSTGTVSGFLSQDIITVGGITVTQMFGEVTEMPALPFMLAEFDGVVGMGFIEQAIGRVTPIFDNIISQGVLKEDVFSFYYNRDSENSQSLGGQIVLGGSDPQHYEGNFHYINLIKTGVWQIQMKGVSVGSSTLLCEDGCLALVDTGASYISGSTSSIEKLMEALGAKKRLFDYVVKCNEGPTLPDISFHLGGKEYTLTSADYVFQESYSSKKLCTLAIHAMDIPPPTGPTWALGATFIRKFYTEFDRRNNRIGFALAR
Put plainly: Selectivity assay: Human Renin. Format: biochemical. The note with it: IC50 of 5 or greater is considered inactive.

Where [4] appears, read: 0 % HSA, read-out: % Inhib. (5ug/mL) 0 % HSA.
The mark [5] stands for this setting: 0.5 % HSA added, read-out: % Inhib. (5ug/mL) 0.5 % HSA.

The structures appear in SMILES notation. Where “and” joins values, the source holds several entries; their conditions need not be identical. Equal values may be shown once. Read-outs that look alike come from different tables or passages of the source.

With `COc1ccc(CCN(CC(=O)NC(C(=O)C(F)(F)F)C(C)C)C(=O)[C@@H](NC(=O)c2ccc(C(=O)NS(=O)(=O)c3ccc(Cl)cc3)cc2)C(C)C)cc1OC` (stereo partly drawn) [[(4-(4-Chlorophenyl)sulfonylaminocarbonyl]phenyl-1-oxomethyl]-L-Valyl-N-[2-(3,4-dimethoxy)phenethyl] glycyl-N-[3-(1,1,1-trifluoro-4-methyl-2-oxypentyl)] amide], the values for the inhibition at 5 µg/mL in [1] (setting [4]) and in assay [1] (setting [5]) were 98.8% and 96.3%, respectively. In assay [1] (IC50, Table I), the IC50 is 0.103 µM. Besides, in assay [2], the “% Inhib. (20 ug. i.t.)” value is 90.2%.

For `CC(C)C(NC(=O)CN(C(=O)[C@@H](NC(=O)c1ccc(C(=O)NS(=O)(=O)c2ccc(Cl)cc2)cc1)C(C)C)C1CC2CCC1C2)C(=O)C(F)(F)F` (stereo partly drawn) [[[4-(4-Chlorophenyl)sulfonylaminocarbonyl]phenyl-1-oxomethyl]-L-Valyl-N-(exo-bicyclo[2,2,1]hept-2-yl)glycyl-N-[3-(1,1,1-trifluoro-4-methyl-2-oxypentyl)]amide], the results for the inhibition at 5 µg/mL in assay [1] (setting [4]) and in assay [1] (setting [5]) were 99.8% and 99.5%, respectively. For the same compound, the IC50 in assay [1] (Table I) was found to be 0.045 µg/mL. For the same compound, the “% Inhib. (20 ug. i.t.)” value in assay [2] is listed as 93.8%.

For `CC(C)C(NC(=O)CN(C(=O)[C@@H](NC(=O)c1ccc(C(=O)NS(=O)(=O)c2ccc(Cl)cc2)cc1)C(C)C)C1Cc2ccccc2C1)C(=O)C(F)(F)F` (stereo partly shown) [Compound of Table III], the IC50 on Human Cathepsin G is above 9.17 µM; against Human Cathepsin B, above 6.55 µM; against Human Urokinase it was above 6.55 µM; in [3] it was above 6.55 µM; against Human C1 Esterase it was above 6.55 µM; in the assay on Total Complement it was >> 100 ug/mL. Further, the 50% inhibitory concentration (IC50) with APTT is >> 100 ug/mL; in the assay with PT, >> 100 ug/mL; against Polio 3C - Proteinase, above 82.5 µM; at Human Renin it was above 6.55 µM.

As to `COc1ccc(CCN(CC(=O)NC(C(=O)C(F)(F)F)C(C)C)C(=O)[C@@H](NC(=O)OCc2ccccc2)C(C)C)cc1OC` (stereo partly shown) [3,4 - Dimethoxyphenethyl, CBZ], the figures for the inhibition at 5 µg/mL in [1] (setting [4]) and in assay [1] (setting [5]) were 95.1% and 87.8%, respectively. The same compound registered a concentration for half-maximal inhibition (IC50) in [1] (Table I) of 0.432 µg/mL.

Take `CC(C)C(NC(=O)CN(C(=O)[C@@H](NC(=O)c1ccc(C(=O)NS(=O)(=O)c2ccc(Cl)cc2)cc1)C(C)C)C1CCCC1)C(=O)C(F)(F)F` (single isomer, unassigned) [Cyclopentyl, p-[p-Cl(C6H4)SO2NHCO](C6H4)CO - (Diastereomer of Above), [[4-(4-Chlorophenyl)sulfonylaminocarbonyl]phenyl-1-oxomethyl]-L-Valyl-N-cyclopentyl-glycyl-N-[3-(1,1,1-trifluoro-4-methyl-2-oxypentyl)]amide]: the inhibition at 5 µg/mL in assay [1] (setting [4]) was found to be 99.8%; in [1] (setting [5]), 99.7%. For the same compound, the “% Inhib. (20 ug. i.t.)” value in assay [2] is 99.0%.

As for `CC(C)C(NC(=O)CN(C(=O)[C@@H](NC(=O)OCc1ccccc1)C(C)C)C1CCCC1)C(=O)C(F)(F)F` (stereo partly shown) [Cyclopentyl, CBZ], the results for the inhibition at 5 µg/mL in assay [1] (setting [4]) and in assay [1] (setting [5]) were 100% and 99.4%, respectively. The compound further had a concentration for half-maximal inhibition (IC50) in assay [1] (Table I) of 0.082 µg/mL.

For `CC(C)C(NC(=O)CN(C(=O)[C@@H](NC(=O)c1ccc(C(=O)NS(=O)(=O)c2ccc(Cl)cc2)cc1)C(C)C)C1CCCC1)C(=O)C(F)(F)F` (single isomer, unassigned) [[[4-(4-Chlorophenyl)sulfonylaminocarbonyl]phenyl-1-oxomethyl]-L-Valyl-N-cyclopentyl-glycyl-N-[3-(1,1,1-trifluoro-4-methyl-2-oxypentyl)]amide], the inhibition at 5 µg/mL turned out to be 100% in [1] (setting [4]) and 99.8% in [1] (setting [5]). Further, the IC50 in assay [1] (Table I, read-out: IC50 (converted)) is 0.113 µM and 0.0923 µM. For the same compound, the “% Inhib. (20 ug. i.t.)” value in assay [2] stood at 99.2%.
